Read-outs that look alike come from different tables or passages of the source.
Legend:
[1] = Hepatocyte stability (mouse); format: in vitro ADME; conditions: test compound 3 μM, 60 min; for hepatocyte CLint at 3 μM: mouse, cryopreserved pooled hepatocytes in suspension, read-out: Mouse heps Clint
Description: (iii) Hepatocyte Stability (Human, Mouse, Rat or Dog)
Test compound (3 μM) is incubated with cryopreserved hepatocytes in suspension. Samples are removed at 6 time points over the course of a 60 min experiment and test compound is analysed by LC-MS/MS. An intrinsic clearance value (CLint) with standard error and half-life (t %) are calculated. Cryopreserved pooled hepatocytes are stored in liquid nitrogen prior to use. […] The final incubation volume is 500 μL. A control incubation is included for each compound tested where lysed cells are added instead of viable cells. Two control compounds are included with each species.
The reactions are stopped by transferring 50 μL of incubate to 100 μL methanol containing internal standard at the appropriate time points. The control (lysed cells) is incubated for 60 min only. The termination plates are centrifuged at 2500 rpm at 4° C. for 30 min to precipitate the protein. Following protein precipitation, the sample supernatants are combined in cassettes of up to 4 compounds and analysed using generic LC-MS/MS conditions. From a plot of In peak area ratio (compound peak area/internal standard peak area) against time, the gradient of the line is determined. Subsequently, half-life (t %) and intrinsic clearance (CLint) are calculated using the equations below: […]

[2] = target: T1, dopamine uptake transporter (rat DAT) (Rattus norvegicus, UniProt P23977); test: Dopamine transporter uptake assay; format: biochemical; conditions: rat striatum synaptosomes, [3H]dopamine
T1 construct: is determined in rat striatum synaptosomes following [^3H]dopamine scintillation counting; from tissue; host or cells: rat striatum synaptosomes
T1 sequence (P23977 whole entry): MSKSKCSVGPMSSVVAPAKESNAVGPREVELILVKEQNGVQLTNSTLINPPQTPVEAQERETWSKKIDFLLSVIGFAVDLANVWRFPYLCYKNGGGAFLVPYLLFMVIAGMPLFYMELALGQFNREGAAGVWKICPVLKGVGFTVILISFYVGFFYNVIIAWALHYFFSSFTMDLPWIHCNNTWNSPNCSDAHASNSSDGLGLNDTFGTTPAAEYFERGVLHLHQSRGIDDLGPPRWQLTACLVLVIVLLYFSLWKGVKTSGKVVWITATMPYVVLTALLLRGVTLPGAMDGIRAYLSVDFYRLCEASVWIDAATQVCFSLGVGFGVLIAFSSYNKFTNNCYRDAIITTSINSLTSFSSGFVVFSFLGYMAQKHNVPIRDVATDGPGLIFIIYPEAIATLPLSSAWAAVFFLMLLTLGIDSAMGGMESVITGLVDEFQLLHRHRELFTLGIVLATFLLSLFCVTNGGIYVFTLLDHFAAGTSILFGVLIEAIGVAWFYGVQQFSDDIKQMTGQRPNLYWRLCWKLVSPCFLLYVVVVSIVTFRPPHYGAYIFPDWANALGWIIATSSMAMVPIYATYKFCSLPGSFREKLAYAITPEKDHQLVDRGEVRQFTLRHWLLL

[3] = target: hGPR88 receptor (Homo sapiens, UniProt Q9GZN0); test: hGPR88-HEK cAMP accumulation assay; conditions: HEK-293 cells expressing human recombinant GPR88, forskolin 200 nM, High/Medium/Low bands
Sequence of hGPR88 receptor (Q9GZN0 whole entry): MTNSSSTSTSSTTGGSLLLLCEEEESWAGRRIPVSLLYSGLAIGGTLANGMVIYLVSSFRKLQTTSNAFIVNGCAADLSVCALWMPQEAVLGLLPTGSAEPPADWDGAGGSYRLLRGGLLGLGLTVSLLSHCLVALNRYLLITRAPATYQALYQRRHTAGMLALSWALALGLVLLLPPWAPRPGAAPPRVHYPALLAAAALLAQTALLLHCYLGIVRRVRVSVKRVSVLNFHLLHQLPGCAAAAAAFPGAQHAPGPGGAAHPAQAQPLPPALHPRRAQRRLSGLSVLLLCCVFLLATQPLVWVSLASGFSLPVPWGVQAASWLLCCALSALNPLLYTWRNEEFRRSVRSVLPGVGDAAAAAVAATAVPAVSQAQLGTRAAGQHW

[4] = read-out: GRP88 agonist activity (EC50)

Question: What does the source list for `COCc1ccc(-c2ccc(NC(=O)C3CC3c3ccccn3)cc2)cc1` (racemic) [Example 1, (rac-trans)-N-(4′-(methoxymethyl)-[1,1′-biphenyl]-4-yl)-2-(pyridin-2-yl)cyclo propane-1-carboxamide]?
Answer: hepatocyte CLint at 3 μM [1]: 65 µL/min/1e6 cells; Inhibition of dopamine uptake transporter (% inhibition at 10 μM compound) ([2]; 10 µM): 11 % inhibition; EC50 ([3]; GRP88 agonist activity (EC50)): < 1000 nM

Question: Which “Inhibition of dopamine uptake transporter (% inhibition at 10 μM compound)” value (shortened to “Inhibition … (% inhibition at 10 μM compound)”) ([2]; 10 µM) does the source give for `COCc1ccc(-c2ccc(NC(=O)C3CC3c3ccccn3)cc2)cc1` (racemic) [Example 18, N-(4′-(methoxymethyl)-[1,1′-biphenyl]-4-yl)-2-(pyridin-2-yl)cyclopropane-1-carboxamide] here?
Answer: 0 % inhibition

Question: Which “Inhibition … (% inhibition at 10 μM compound)” value [2] does the source give for `COCc1ccc(-c2ccc(NC(=O)C3CC3c3ccccn3)nc2)cc1` (racemic) [Example 45, (rac-trans)-N-(5-(4-(methoxymethyl)phenyl)pyridin-2-yl)-2-(pyridin-2-yl)cyclopropane-1-carboxamide] here?
Answer: 28 % inhibition

Question: Which results are given for `CCOc1ccc(-c2ccc(NC(=O)C3CC3c3ccccn3)cc2)cn1` (racemic) [Example 75, (rac-trans)-N-(4-(6-ethoxypyridin-3-yl)phenyl)-2-(pyridin-2-yl)cyclopropane-1-carboxamide]?
Answer: Inhibition of dopamine uptake transporter (% inhibition at 10 μM compound) ([2]; 10 µM): 5 % inhibition; EC50 [3, 4]: 1000 to 5000 nM

Question: For `CCOc1ccc(-c2ccc(NC(=O)C3CC3c3ccccn3)cc2)cn1` (racemic) [Example 76, (rac-trans)-N-(4-(6-ethoxypyridin-3-yl)phenyl)-2-(pyridin-2-yl)cyclopropane-1-carboxamide], which “Mouse heps Clint” value ([1]; mouse cryopreserved hepatocytes) is on record?
Answer: 30 μL/min/10^6 cells

Question: And the “Inhibition … (% inhibition at 10 μM compound)” value ([2]; 10 µM)?
Answer: 7 % inhibition

Question: And the EC50 [3, 4]?
Answer: 1000 to 5000 nM

Question: What does the source list for `CS(=O)(=O)c1ccc(-c2ccc(NC(=O)C3CC3c3ccccn3)cc2)cc1` (racemic) [Example 85, (rac-trans)-N-(4′-(methylsulfonyl)-[1,1′-biphenyl]-4-yl)-2-(pyridin-2-yl)cyclopropane-1-carboxamide]?
Answer: hepatocyte CLint at 3 μM [1]: 14 µL/min/1e6 cells; Inhibition of dopamine uptake transporter (% inhibition at 10 μM compound) [2]: 12 % inhibition; EC50 ([3]; GRP88 agonist activity (EC50)): < 1000 nM

Question: For `O=C(Nc1ccc(-c2ccc(OC3CC3)cc2)cc1)C1CC1c1ccccn1` (racemic) [Example 87, (rac-trans)-N-(4′-cyclopropoxy-[1,1′-biphenyl]-4-yl)-2-(pyridin-2-yl)cyclopropane-1-carboxamide], which hepatocyte CLint at 3 μM [1] is on record?
Answer: 31 µL/min/1e6 cells

Question: What about the “Inhibition … (% inhibition at 10 μM compound)” value [2] of the same compound?
Answer: 1 % inhibition

Question: What about the EC50 ([3]; GRP88 agonist activity (EC50)) of the same compound?
Answer: < 1000 nM

Question: What does the source list for `COCc1ccc(C23CC(NC(=O)C4CC4c4ccccn4)(C2)C3)cc1` (racemic) [Example 111, (rac-trans)-N-(3-(4-(methoxymethyl)phenyl)bicyclo[1.1.1]pentan-1-yl)-2-(pyridin-2-yl)cyclopropane-1-carboxamide]?
Answer: hepatocyte CLint at 3 μM [1]: 22 µL/min/1e6 cells; Inhibition of dopamine uptake transporter (% inhibition at 10 μM compound) [2]: 14 % inhibition; EC50 ([3]; GRP88 agonist activity (EC50)): 1000 to 5000 nM

Question: For `COCc1ccc([C@]23C[C@](NC(=O)C4CC4c4ccccn4)(C2)C3)nc1` (mixture of isomers) [Example 136, N-(3-(5-(methoxymethyl)pyridin-2-yl)bicyclo[1.1.1]pentan-1-yl)-2-(pyridin-2-yl)cyclopropane-1-carboxamide], which “Inhibition … (% inhibition at 10 μM compound)” value [2] is on record?
Answer: 2 % inhibition

Question: And the EC50 ([3]; GRP88 agonist activity (EC50))?
Answer: > 5000 nM

Question: With `CCCc1ccc([C@]23C[C@](NC(=O)C4CC4c4ccccn4)(C2)C3)nc1` (mixture of isomers) [Example 137, N-(3-(5-propylpyridin-2-yl)bicyclo[1.1.1]pentan-1-yl)-2-(pyridin-2-yl)cyclopropane-1-carboxamide] as the compound, how does the “Inhibition … (% inhibition at 10 μM compound)” value [2] read?
Answer: 10 % inhibition

Question: What about the EC50 ([3]; GRP88 agonist activity (EC50)) of the same compound?
Answer: 1000 to 5000 nM

Question: Which “Inhibition … (% inhibition at 10 μM compound)” value [2] does the source give for `O=C(Nc1ccc(-c2ccc(CN3CCOCC3)cc2)cc1)C1CC1c1ccccn1` (single isomer, unassigned) [Example 78, (1R*,2R*)-N-(4′-(morpholinomethyl)-[1,1′-biphenyl]-4-yl)-2-(pyridin-2-yl)cyclopropane-1-carboxamide] here?
Answer: 17 % inhibition

Question: Which hepatocyte CLint at 3 μM [1] does the source give for `COCc1ccc(-c2ccc(NC(=O)C(C)(C)Oc3ccc(F)cc3)cc2)cc1` [Example 2, 2-(4-fluorophenoxy)-N-(4′-(methoxymethyl)-[1,1′-biphenyl]-4-yl)-2-methylpropanamide] here?
Answer: 54 µL/min/1e6 cells

Question: What about the “Inhibition … (% inhibition at 10 μM compound)” value [2] of the same compound?
Answer: 3 % inhibition

Question: And the EC50 ([3]; GRP88 agonist activity (EC50))?
Answer: < 1000 nM

Question: Which hepatocyte CLint at 3 μM [1] does the source give for `CCOc1ccc(-c2ccc(NC(=O)C(C)(C)Oc3ccc(F)cc3)cc2)cn1` [Example 26, N-(4-(6-ethoxypyridin-3-yl)phenyl)-2-(4-fluorophenoxy)-2-methylpropanamide] here?
Answer: 70 µL/min/1e6 cells

Question: What about the “Inhibition … (% inhibition at 10 μM compound)” value [2] of the same compound?
Answer: 7 % inhibition

Question: And the EC50 ([3]; GRP88 agonist activity (EC50))?
Answer: < 1000 nM

Question: What does the source list for `COCc1ccc(-c2ccc3c(c2)CCCN3C(=O)C(C)(C)Oc2ccc(F)cc2)cc1` [Example 31, 2-(4-fluorophenoxy)-1-(6-(4-(methoxymethyl)phenyl)-3,4-dihydroquinolin-1(2H)-yl)-2-methylpropan-1-one]?
Answer: hepatocyte CLint at 3 μM [1]: 76 µL/min/1e6 cells; Inhibition of dopamine uptake transporter (% inhibition at 10 μM compound) [2]: 52 % inhibition; EC50 ([3]; GRP88 agonist activity (EC50)): < 1000 nM

Question: With `CN(C)c1ncc(-c2ccc(NC(=O)C(C)(C)Oc3ccc(F)cc3)cc2)cn1` [Example 49, N-(4-(2-(dimethylamino)pyrimidin-5-yl)phenyl)-2-(4-fluorophenoxy)-2-methylpropanamide] as the compound, how does the “Inhibition … (% inhibition at 10 μM compound)” value [2] read?
Answer: 0 % inhibition

Question: What about the EC50 ([3]; GRP88 agonist activity (EC50)) of the same compound?
Answer: < 1000 nM

Question: With `CN(C)c1ccc(-c2ccc(NC(=O)C(C)(C)Oc3ccc(F)cc3)cc2)cn1` [Example 79, N-(4-(6-(dimethylamino)pyridin-3-yl)phenyl)-2-(4-fluorophenoxy)-2-methylpropanamide] as the compound, how does the “Inhibition … (% inhibition at 10 μM compound)” value [2] read?
Answer: 21 % inhibition

Question: What about the EC50 ([3]; GRP88 agonist activity (EC50)) of the same compound?
Answer: < 1000 nM

Question: Which results are given for `COCc1ccc([C@]23C[C@](NC(=O)C(C)(C)Oc4ccc(F)cc4)(C2)C3)cc1` [Example 135, 2-(4-fluorophenoxy)-N-(3-(4-(methoxymethyl)phenyl)bicyclo[1.1.1]pentan-1-yl)-2-methylpropanamide]?
Answer: Inhibition of dopamine uptake transporter (% inhibition at 10 μM compound) [2]: 8 % inhibition; EC50 ([3]; GRP88 agonist activity (EC50)): 1000 to 5000 nM

Question: For `CCCc1ccc(-c2ccc(N(C[C@@H](N)[C@@H](C)CC)C(=O)[C@@H]3C[C@H]3c3ccccn3)cc2)cc1` [Literature comparative 2, 2-PCCA, reference compound], which “Inhibition … (% inhibition at 10 μM compound)” value [2] is on record?
Answer: 90 % inhibition

Reference: patent publication US20240132450A1, “MODULATORS OF G PROTEIN-COUPLED RECEPTOR 88” (ACADIA Pharmaceuticals Inc., priority 2020, published 2024)
